# Laboratory results: US11964949B2, “Substituted phenyloxazolidinones for antimicrobial therapy” (priority 2015, dated 2024)
# Where two headings read alike, the source gives them in different places.
# Experiments:
# [1] = test system: mitochondrial protein synthesis (MPS) in H9C2 cells; test: In vitro assay for MPS inhibition (COX-1 / SDH-A ELISA in H9C2 cells); type: cell-based, rat; details: Rattus norvegicus, read-out: IC50 (μM) MPS inhibition
# [2] = test system: Mycobacterium tuberculosis H37Rv; test: In vitro assay for antimicrobial susceptibility (microplate Alamar blue, MIC); type: cell-based; details: for MIC: Mycobacterium tuberculosis, read-out: MIC (μg/mL) against H37Rv
# [3] = 120 h, H9C2 cells, 5 days incubation
# [4] = M. tuberculosis H37Rv, 7H9 broth, Alamar blue
Compound,"MIC [2, 4] [µg/mL]",other results
"O=C1O[C@@H](Cn2ccnn2)CN1c1ccc(N2CCCSCCC2)c(F)c1 [OBD-001, (R)-5-((1H-1,2,3-triazol-1-yl)methyl)-3-(3-fluoro-4-(1,5-thiazocan-5-yl)phenyl)oxazolidin-2-one]",0.3,"IC50 [1, 3]: 12 µM"
"O=C1O[C@@H](Cn2ccnn2)CN1c1ccc(N2CCC[S+]([O-])CCC2)c(F)c1 [OBD-002, (R)-5-((1H-1,2,3-Triazol-1-yl)methyl)-3-(3-fluoro-4-(1-oxido-1,5-thiazocan-5-yl)phenyl)oxazolidin-2-one]",1.6,"IC50 [1, 3]: 29 µM"
"CCCC(=O)NC[C@H]1CN(c2ccc(N3CCCSCCC3)c(F)c2)C(=O)O1 [OBD-003, (S)—N-((3-(3-fluoro-4-(1,5-thiazocan-5-yl)phenyl)-2-oxooxazolidin-5-yl)methyl)buty ramide]",0.33,"IC50 [1, 3]: > 100 µM"
"CCCC(=O)NC[C@H]1CN(c2ccc(N3CCC[S+]([O-])CCC3)c(F)c2)C(=O)O1 [OBD-004, (S)—N-((3-(3-Fluoro-4-(1-oxido-1,5-thiazocan-5-yl)phenyl)-2-oxooxazolidin-5-yl)methyl)butyramide]",3.34,"IC50 [1, 3]: 15.8 µM"
"CCCC(=O)NC[C@H]1CN(c2ccc(N3CCCSCC3)c(F)c2)C(=O)O1 [OBD-005, (S)—N-((3-(3-fluoro-4-(1,4-thiazepan-4-yl)phenyl)-2-oxooxazolidin-5-yl)methyl)buty ramide]",0.055,"IC50 [1, 3]: 15.6 µM"
"CCCC(=O)NC[C@H]1CN(c2ccc(N3CCC[S+]([O-])CC3)c(F)c2)C(=O)O1 (stereo partly drawn) [OBD-006, N-(((5S)-3-(3-Fluoro-4-(1-oxido-1,4-thiazepan-4-yl)phenyl)-2-oxooxazolidin-5-yl)methyl)butyramide]",0.49,"IC50 [1, 3]: 7.49 µM"
"CCCC(=O)NC[C@H]1CN(c2ccc(N3CCCS(=O)(=O)CC3)c(F)c2)C(=O)O1 [OBD-007, (S)—N-((3-(4-(1,1-Dioxido-1,4-thiazepan-4-yl)-3-fluorophenyl)-2-oxooxazolidin-5-yl)methyl)butyramide]",0.46,"IC50 [1, 3]: 19.8 µM"
"O=C1O[C@@H](Cn2cncn2)CN1c1ccc(N2CCCSCCC2)c(F)c1 [OBD-008, (R)-5-((1H-1,2,4-triazol-1-yl)methyl)-3-(3-fluoro-4-(1,5-thiazocan-5-yl)phenyl)oxazolidin-2-one]",3.51,"IC50 [1, 3]: 29.9 µM"
"O=C1O[C@@H](Cn2cncn2)CN1c1ccc(N2CCC[S+]([O-])CCC2)c(F)c1 [OBD-009, (R)-5-((1H-1,2,4-Triazol-1-yl)methyl)-3-(3-fluoro-4-(1-oxido-1,5-thiazocan-5-yl)phenyl)oxazolidin-2-one]",21.1,"IC50 [1, 3]: > 100 µM"
"CCCC(=O)NC[C@H]1CN(c2ccc(N3C4CCC3CSC4)c(F)c2)C(=O)O1 [OBD-016, N—(((S)-3-(4-(3-thia-8-aza-bicyclo[3.2.1]octan-8-yl)-3-fluorophenyl)-2-oxooxazolidin-5-yl)methyl)butyramide]",–,"IC50 ([1]; H9c2, 120 h): 13 µM; MIC ([2]; H37RV): 0.486 µg/mL"
"O=C1O[C@@H](Cn2cncn2)CN1c1ccc(N2[C@@H]3CC[C@H]2C[S+]([O-])C3)c(F)c1 (stereo partly drawn) [OBD-018, (5R)-5-((1H-1,2,4-Triazol-1-yl)methyl)-3-(3-fluoro-4-((1R,5S)-3-oxido-3-thia-8-azabicyclo[3.2.1]octan-8-yl)phenyl)oxazolidin-2-one]",–,MIC ([2]; H37RV): > 32 µg/mL
"O=C1O[C@@H](Cn2cncn2)CN1c1ccc(N2C3CCC2CSC3)c(F)c1 [OBD-021, (5R)-5-((1H-1,2,4-triazol-1-yl)methyl)-3-(4-(3-thia-8-aza-bicyclo[3.2.1]octan-8-yl)-3-fluorophenyl)oxazolidin-2-one]",–,MIC ([2]; H37RV): 27.5 µg/mL
"CCCC(=O)NC[C@H]1CN(c2cc(F)c(N3CCCSCCC3)c(F)c2)C(=O)O1 [OBD-026, (S)—N-((3-(3,5-difluoro-4-(1,5-thiazocan-5-yl)phenyl)-2-oxooxazolidin-5-yl)methyl) butyramide]",0.4,–
CC(=O)NC[C@H]1CN(c2cc(F)c(N3CCCSCCC3)c(F)c2)C(=O)O1 [OBD-027],–,MIC ([2]; H37RV): 0.3 µg/mL
COC(=O)NC[C@H]1CN(c2cc(F)c(N3CC4CCC(C3)O4)c(F)c2)C(=O)O1 [OBD-049],0.25 to 1,–
NC[C@H]1CN(c2cc(F)c(N3CC4(COC4)C3)c(F)c2)C(=O)O1 [OBD-062],0.1 to 0.25,–
"CNC[C@H]1CN(c2ccc(N3CCCSCC3)c(F)c2)C(=O)O1 [OTB-109, (S)-3-[3-Fluoro-4-(1,4-thiazepan-4-yl)phenyl]-5-[(methylamino)methyl]oxazolidin-2-one]",32,–
"O=C(NC[C@H]1CN(c2ccc(N3CCCSCCC3)c(F)c2)C(=O)O1)c1cccs1 [OTB-118, (S)—N-[[3-(3-Fluoro-4-(1,5-thiazocan-5-yl)phenyl)-2-oxo-oxazolidin-5-yl]methyl]thiophene-2-carboxamide]",1.55,–

Compound,"MIC [2, 4] [µg/mL]",other results
"CC(=O)NC[C@H]1CN(c2ccc(N3CCC[S+]([O-])CCC3)c(F)c2)C(=O)O1 [OTB-124, (S)—N-[[3-(3-Fluoro-4-(1-oxido-1,5-thiazocan-5-yl)phenyl)-2-oxo-oxazolidin-5-yl]methyl]acetamide]",0.26 to 1.4,–
"O=C1O[C@@H](CO)CN1c1ccc(N2CC3(COC3)C2)c(F)c1 [OTB-201, (R)-3-(3-Fluoro-4-(2-oxa-6-azaspiro[3.3]heptan-6-yl)phenyl)-5-(hydroxymethyl)oxazolidin-2-one]",16,–
"O=C(NC[C@H]1CN(c2ccc(N3CC4(COC4)C3)c(F)c2)C(=O)O1)c1ccco1 [OTB-205, (S)—N-((3-(3-Fluoro-4-(2-oxa-6-azaspiro[3.3]heptan-6-yl)phenyl)-2-oxo-oxazolidin-5-yl)methyl)furan-2-carboxamide]",3.9,–
"O=C(NC[C@H]1CN(c2ccc(N3CC4(COC4)C3)c(F)c2)C(=O)O1)c1cccs1 [OTB-206, (S)—N-((3-(3-Fluoro-4-(2-oxa-6-azaspiro[3.3]heptan-6-yl)phenyl)-2-oxo-oxazolidin-5-yl)methyl)thiophene-2-carboxamide]",2.8,–
"CS(=O)(=O)NC[C@H]1CN(c2ccc(N3CC4(COC4)C3)c(F)c2)C(=O)O1 [OTB-222, (R)—N-((3-(3-Fluoro-4-(2-oxa-6-azaspiro[3.3]heptan-6-yl)phenyl)-2-oxo-oxazolidin-5-yl)methyl)methanesulfonamide]",7.4,–
"COC(=O)NC[C@H]1CN(c2ccc(N3CC4(COC4)C3)c(F)c2)C(=O)O1 [OTB-223, Methyl (S)-((3-(3-fluoro-4-(2-oxa-6-azaspiro[3.3]heptan-6-yl)phenyl)-2-oxo-oxazolidin-5-yl)methyl)carbamate]",0.8 to 2.6,–
"O=C1O[C@@H](Cn2ccnn2)CN1c1cc(F)c(N2CC3(COC3)C2)c(F)c1 [OTB-234, (R)-5-((1H-1,2,3-Triazol-1-yl)methyl)-3-(3,5-difluoro-4-(2-oxa-6-azaspiro[3.3]heptan-6-yl)phenyl)oxazolidin-2-one]",0.39 to 4,–
"CS(=O)(=O)NC[C@H]1CN(c2ccc(N3[C@@H]4CC[C@H]3CSC4)c(F)c2)C(=O)O1 [OTB-236, N—(((R)-3-(4-((1R,5S)-3-Thia-8-azabicyclo[3.2.1]octan-8-yl)-3-fluorophenyl)-2-oxo-oxazolidin-5-yl)methyl)methanesulfonamide]",–,MIC ([2]; H37RV): 14.3 µg/mL
"O=C(NC[C@H]1CN(c2cc(F)c(N3CC4(CSC4)C3)c(F)c2)C(=O)O1)C1CCC1 [OTB-244, (S)—N-((3-(3,5-Difluoro-4-(2-thia-6-azaspiro[3.3]heptan-6-yl)phenyl)-2-oxo-oxazolidin-5-yl)methyl)cyclobutanecarboxamide]",0.02 to 0.6,–
O=C(NC[C@H]1CN(c2ccc(N3CC4(CSC4)C3)c(F)c2)C(=O)O1)C1CC1 [OTB-249],0.06 to 0.15,–
O=C(NC[C@H]1CN(c2ccc(N3CC4(CSC4)C3)c(F)c2)C(=O)O1)C1CCC1 [OTB-250],0.06,–
"O=C(NC[C@H]1CN(c2ccc(N3CCCSCC3)c(F)c2)C(=O)O1)C1CCC1 [OTB-414, (S)—N-((3-(3-Fluoro-4-(1,4-thiazepan-4-yl)phenyl)-2-oxooxazolidin-5-yl)methyl)cyclobutanecarboxamide]",0.171,–
"O=C1O[C@@H](CO)CN1c1ccc(N2[C@@H]3CC[C@H]2CSC3)c(F)c1 [OTB-501, (R)-3-(4-((1R,5S)-3-Thia-8-azabicyclo[3.2.1]octan-8-yl)-3-fluorophenyl)-5-(hydroxymethyl)oxazolidin-2-one]",–,MIC ([2]; H37RV): 4.5 µg/mL
"CC(=O)NC[C@H]1CN(c2ccc(N3[C@@H]4CC[C@H]3C[S+]([O-])C4)c(F)c2)C(=O)O1 (stereo partly drawn) [OTB-503, N-(((5S)-3-(3-Fluoro-4-((1R,5S)-3-oxido-3-thia-8-azabicyclo[3.2.1]octan-8-yl)phenyl)-2-oxo-oxazolidin-5-yl)methyl)acetamide]",–,MIC ([2]; H37RV): 0.2 to 1.3 µg/mL
"O=C1O[C@@H](Cn2ccnn2)CN1c1ccc(N2[C@@H]3CC[C@H]2CSC3)c(F)c1 [OTB-504, (R)-5-((1H-1,2,3-Triazol-1-yl)methyl)-3-(4-((1R,5S)-3-thia-8-azabicyclo[3.2.1]octan-8-yl)-3-fluorophenyl)oxazolidin-2-one]",–,MIC ([2]; H37RV): 0.5 to 0.7 µg/mL
"O=C1O[C@@H](Cn2ccnn2)CN1c1ccc(N2[C@@H]3CC[C@H]2C[S+]([O-])C3)c(F)c1 (stereo partly drawn) [OTB-505, (5R)-5-((1H-1,2,3-Triazol-1-yl)methyl)-3-(3-fluoro-4-((1R,5S)-3-oxido-3-thia-8-azabicyclo[3.2.1]octan-8-yl)phenyl)oxazolidin-2-one]",–,MIC ([2]; H37RV): 1.8 to 3.5 µg/mL
"O=C1O[C@@H](Cn2ccnn2)CN1c1cc(F)c(N2[C@@H]3CC[C@H]2CSC3)c(F)c1 [OTB-511, (R)-5-((1H-1,2,3-Triazol-1-yl)methyl)-3-(4-((1R,5S)-3-thia-8-azabicyclo[3.2.1]octan-8-yl)-3,5-difluorophenyl)oxazolidin-2-one]",–,MIC ([2]; H37RV): 0.06 to 0.2 µg/mL
"(R)-5-((1H-1,2,3-Triazol-1-yl)methyl)-3-(3-fluoro-4-(2-oxa-6-azaspiro[3.3]heptan-6-yl)phenyl)oxazolidin-2-one [OTB-203]",–,"MIC (μg/mL) against H37Rv [2, 4]: >32 µg/mL"
